In patent US20120052130A1, “GPR 119 MODULATORS” (Pfizer Inc., priority 2009, published 2012):
Several values for one entry are separate records, joined by “and”; a condition that tells them apart may be missing. Identical values can stand only once.

Columns and labels:
human GPR119 [1] = biological target: T1, human GPR119 (Homo sapiens, UniProt Q8TDV5); assay: DiscoverX PathHunter β-arrestin cell assay (U2OS hGPR119 β-arrestin cell line); format: cell-based; settings: U2OS hGPR119 β-arrestin cells; each line is a separate determination; read-out: Human B-arrestin Functional EC50
T1 construct: host or cells: U2OS hGPR119 β-arrestin cell line
Method: GPR119 agonist activity was also determined with a cell-based assay utilizing DiscoverX PathHunter β-arrestin cell assay technology and their U2OS hGPR119 β-arrestin cell line (DiscoverX Cat #93-0356 C3). In this assay, agonist activation is determined by measuring agonist-induced interaction of β-arrestin with activated GPR119. A small, 42 amino acid enzyme fragment, called ProLink was appended to the C-terminus of GPR119. Arrestin was fused to the larger enzyme fragment, termed EA (Enzyme Acceptor). […]
After 16 hours (overnight) the assay plates were removed from the incubator and varying concentrations of each compound to be tested (diluted in assay buffer (1×HBSS+CaCl2+MgCl2 (Gibco Cat #14025-092), 20 mM HEPES pH 7.0 (Gibco Cat #15630-080) and 0.1% BSA (Sigma Cat # A9576)) were added to the assay plate wells in a volume of 5 microliters (final DMSO concentration was 0.5%). After a 90 minute incubation at 37 degrees Celsius in a humidified environment in 5% carbon dioxide, 12 microliters of Galacton Star β-galactosidase substrate (PathHunter Detection Kit (DiscoveRx Cat #93-0001); prepared as described in the manufacturers assay protocol) was added to each well of the assay plate. The plates were incubated at room temperature and after 60 minutes, changes in the luminescence were read with an Envision 2104 multilabel plate reader at 0.1 seconds per well. […]
T1 sequence (P32121 whole entry partner, one chain of several): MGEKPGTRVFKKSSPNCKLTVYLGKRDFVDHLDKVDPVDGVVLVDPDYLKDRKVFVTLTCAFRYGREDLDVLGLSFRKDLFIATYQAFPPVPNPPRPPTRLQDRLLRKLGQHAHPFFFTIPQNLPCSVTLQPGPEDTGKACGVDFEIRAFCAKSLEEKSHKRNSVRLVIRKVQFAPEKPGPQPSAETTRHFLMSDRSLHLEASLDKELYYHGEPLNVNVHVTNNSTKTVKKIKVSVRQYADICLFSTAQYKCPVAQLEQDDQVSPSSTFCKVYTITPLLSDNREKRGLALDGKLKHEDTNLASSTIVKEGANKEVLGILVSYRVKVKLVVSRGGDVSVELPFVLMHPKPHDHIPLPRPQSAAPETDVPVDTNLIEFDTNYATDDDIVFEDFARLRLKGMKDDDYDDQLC

human GPR119 [2] = biological target: T2, human GPR119 (Homo sapiens, UniProt Q8TDV5); assay: HTRF cAMP cell-based GPR119 agonist assay (hGPR119 HEK-CRE beta-lactamase cells); parameters: host or cells: hGPR119-HEK293-CRE-beta-lactamase cells; settings: HTRF cAMP, hGPR119 HEK-CRE beta-lactamase cells; each line is a separate determination; read-out: Human cAMP Functional EC50
T2 sequence (Q8TDV5 1-335): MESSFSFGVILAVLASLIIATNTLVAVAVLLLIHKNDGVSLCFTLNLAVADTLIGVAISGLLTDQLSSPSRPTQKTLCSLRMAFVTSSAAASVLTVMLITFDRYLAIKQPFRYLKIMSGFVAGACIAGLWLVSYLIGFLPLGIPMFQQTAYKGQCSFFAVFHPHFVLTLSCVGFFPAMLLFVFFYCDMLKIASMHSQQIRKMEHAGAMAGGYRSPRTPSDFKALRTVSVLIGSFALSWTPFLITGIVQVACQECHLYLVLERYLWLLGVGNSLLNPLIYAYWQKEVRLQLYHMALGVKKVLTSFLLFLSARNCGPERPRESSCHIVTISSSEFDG
Method: GPR119 agonist activity was also determined with a cell-based assay utilizing an HTRF (Homogeneous Time-Resolved Fluorescence) cAMP detection kit (cAMP dynamic 2 Assay Kit; Cis Bio cat #62AM4PEC) that measures cAMP levels in the cell. The method is a competitive immunoassay between native cAMP produced by the cells and the cAMP labeled with the dye d2. The tracer binding is visualized by a Mab anti-cAMP labeled with Cryptate. The specific signal (i.e. energy transfer) is inversely proportional to the concentration of cAMP in either standard or sample.
Specifically, hGPR119HEK-CRE beta-lactamase cells (Invitrogen 2.5×10^7/mL; the same cell line used in the beta-lactamase assay described above) are removed from cryopreservation and diluted in growth medium (Dulbecco's modified Eagle medium high glucose (DMEM; Gibco Cat #11995-065), 1% charcoal dextran treated fetal bovine serum (CD serum; HyClone Cat # SH30068.03), 1×MEM Nonessential amino acids (Gibco Cat #15630-080) and 25 mM HEPES pH 7.0 (Gibco Cat #15630-080)). The cell concentration was adjusted to 1.5×10^5 cells/mL and 30 mLs of this suspension was added to a T-175 flask and incubated at 37 degrees Celsius in a humidified environment in 5% carbon dioxide. […]
Varying concentrations of each compound to be tested were diluted in assay buffer containing 3-isobutyl-1-methylxanthin (IBMX; Sigma cat #15879) and added to the assay plate wells in a volume of 2 microL (final IBMX concentration was 400 microM and final DMSO concentration was 0.58%). […] The plates were then incubated at room temperature and after 60 minutes, changes in the HTRF signal were read with an Envision 2104 multilabel plate reader using excitation of 330 nm and emissions of 615 and 665 nm. Raw data were converted to nM cAMP by interpolation from a cAMP standard curve (as described in the manufacturer's assay protocol) and EC50 determinations were made from an agonist-response curves analyzed with a curve fitting program using a 4-paramter logistic dose response equation.

EC50 (human GPR119 [1])	EC50 (human GPR119 [2])	SMILES
3.79 nM	370 nM and 194 nM and 88 nM	Cc1c(O[C@@H]2[C@@H]3COC[C@H]2CN(C(=O)OC2(C)CC2)C3)ncnc1N1CCc2ncccc21 [Example 28, 1-Methylcyclopropyl (9-syn)-9-{[6-(2,3-dihydro-1H-pyrrolo[3,2-b]pyridin-1-yl)-5-methylpyrimidin-4-yl]oxy}-3-oxa-7-azabicyclo[3.3.1]nonane-7-carboxylate]
37 nM	311 nM and 982 nM and 1040 nM and 1330 nM	Cc1c(O[C@@H]2[C@@H]3COC[C@H]2CN(C(=O)OC(C)C)C3)ncnc1N1CCc2cc(S(C)(=O)=O)ccc21 [Example 23, Isopropyl (9-syn)-9-({5-methyl-6-[5-(methylsulfonyl)-2,3-dihydro-1H-indol-1-yl]pyrimidin-4-yl}oxy)-3-oxa-7-azabicyclo[3.3.1]nonane-7-carboxylate]
